In PubChem BioAssay (NCI):
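Growth conditions: 96-well plates. Treatment: test compound, 48 hours, 5 concentrations. Analysis: linear interpolation between bracketing concentrations; unreached endpoints set to highest concentration. TGI is the concentration that stops growth completely.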

Experiments:
Assay in all cases: NCI anticancer screen, dose series, 48 h
[1] = system: HL-60(TB) leukemia
[2] = system: SK-MEL-5 melanoma
[3] = system: 786-0 renal
[4] = system: IGROV1 ovarian
[5] = system: DMS 114 small cell lung
[6] = system: SNB-78 CNS
[7] = system: HOP-92 NSCLC
[8] = system: KM12 colon
[9] = system: SK-MEL-28 melanoma
[10] = system: MALME-3M melanoma
[11] = system: OVCAR-4 ovarian
[12] = system: UACC-62 melanoma
[13] = system: HCC-2998 colon
[14] = system: CCRF-CEM leukemia
[15] = system: UACC-257 melanoma
[16] = system: RPMI-8226 leukemia
[17] = system: SNB-19 CNS
[18] = system: LOX IMVI melanoma
[19] = system: SR leukemia
[20] = system: A498 renal
[21] = system: UO-31 renal
[22] = system: TK-10 renal
[23] = system: U251 CNS
[24] = system: M14 melanoma
[25] = system: HCT-116 colon
[26] = system: CAKI-1 renal
[27] = system: HOP-18 NSCLC
[28] = system: SN12C renal
[29] = system: RXF-631 renal
[30] = system: COLO 205 colon
[31] = system: NCI-H522 lung
[32] = system: NCI-H226 lung
[33] = system: HT29 colon
[34] = system: A549 NSCLC
[35] = system: OVCAR-8 ovarian
[36] = system: OVCAR-3 ovarian
[37] = system: DLD-1 colon
[38] = system: KM20L2 colon
[39] = system: K-562 leukemia
[40] = system: SF-268 CNS
[41] = system: SW-620 colon
[42] = system: SK-OV-3 ovarian
[43] = system: DMS 273 small cell lung
[44] = system: NCI-H23 lung
[45] = system: ACHN renal
[46] = system: HOP-62 NSCLC
[47] = system: RXF 393 renal
[48] = system: HCT-15 colon
[49] = system: LXFL 529 NSCLC
[50] = system: SF-539 CNS
[51] = system: SNB-75 CNS
[52] = system: NCI-H460 lung
[53] = system: OVCAR-5 ovarian
[54] = system: SK-MEL-2 melanoma
[55] = system: SF-295 CNS
[56] = system: MOLT-4 leukemia
[57] = system: EKVX NSCLC
[58] = system: XF 498 CNS
[59] = system: M19-MEL melanoma

Measured: TGI

O=c1c(O)c(-c2ccccc2)n(O)c2ccc(Cl)cc12
55.3 µM: [12]
71.1 µM: [26]
95.3 µM: [53]
63 µM: [47]
27.2 µM: [18]
72.3 µM: [22]
49.8 µM: [28]
24.6 µM: [25]
96.5 µM: [7]
48 µM: [50]
89.9 µM: [4]
80.9 µM: [8]
42.1 µM: [2]
60.3 µM: [46]
52.1 µM: [35]
69.2 µM: [52]
34.5 µM: [41]
64 µM: [49]
51.7 µM: [31]
80.8 µM: [51]
83.9 µM: [38]
45.1 µM: [32]
74 µM: [45]
78.4 µM: [20]
49.6 µM: [48]
62.8 µM: [1]
78.6 µM: [42]
58.6 µM: [43] | [54]
40.1 µM: [13]
54.9 µM: [5]
not listed: [57] | [58] | [59]
> 100 µM: all other assays above

CC1CCN(CCC(=O)CC(c2ccccc2)c2c(O)c3ccccc3oc2=O)CC1 (stereo not drawn)
not listed: [7] | [10] | [13] | [27] | [28] | [49] | [53]
> 100 µM: all other assays above
